Source: patent US20240335569A1, “FIBROBLAST ACTIVATION PROTEIN INHIBITORS AND USE THEREOF” (3 B PHARMACEUTICALS GMBH, priority 2021, published 2024)

Assays:
Human recombinant FAP [1] = biological target: T1, Human recombinant FAP (Homo sapiens (Human), UniProt Q12884); test: FAP protease activity assay (human), FRET-based; type: biochemical; details: for IC50: read-out: pIC50 (Activity) (converted)
Procedure: In order to determine the inhibitory activity a FRET-based FAP protease activity assay was established.
Four parameter logistic (4PL) curve fitting and pIC50 calculations were performed using ActivityBase software (IDBS).
Target sequence in this assay (Q12884 26-760): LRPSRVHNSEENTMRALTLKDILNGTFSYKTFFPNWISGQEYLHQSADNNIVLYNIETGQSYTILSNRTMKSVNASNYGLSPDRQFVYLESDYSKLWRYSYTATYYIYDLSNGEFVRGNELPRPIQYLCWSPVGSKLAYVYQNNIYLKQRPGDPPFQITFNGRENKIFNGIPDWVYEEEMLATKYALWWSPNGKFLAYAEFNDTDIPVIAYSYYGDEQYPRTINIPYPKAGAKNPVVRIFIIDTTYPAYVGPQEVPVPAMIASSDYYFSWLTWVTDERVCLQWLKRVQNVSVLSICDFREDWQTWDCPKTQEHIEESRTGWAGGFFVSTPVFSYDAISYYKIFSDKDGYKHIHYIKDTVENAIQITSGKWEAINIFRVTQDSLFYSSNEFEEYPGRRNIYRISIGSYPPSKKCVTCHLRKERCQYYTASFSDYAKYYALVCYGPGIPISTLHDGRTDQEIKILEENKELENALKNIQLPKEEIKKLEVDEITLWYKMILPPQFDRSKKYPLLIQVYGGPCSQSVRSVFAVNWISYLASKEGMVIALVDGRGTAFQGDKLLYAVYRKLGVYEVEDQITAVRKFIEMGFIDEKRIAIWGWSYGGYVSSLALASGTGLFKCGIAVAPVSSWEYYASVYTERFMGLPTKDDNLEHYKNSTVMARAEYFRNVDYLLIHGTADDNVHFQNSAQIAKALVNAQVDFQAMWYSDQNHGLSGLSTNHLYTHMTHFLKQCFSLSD

[2] = biological target: FAP-expressing human WI-38 fibroblasts (Homo sapiens (Human), UniProt Q12884); test: FACS binding assay (competitive, Cy5-labeled 3BP-2935)
FAP-expressing human WI-38 fibroblasts, sequence (Q12884 whole entry): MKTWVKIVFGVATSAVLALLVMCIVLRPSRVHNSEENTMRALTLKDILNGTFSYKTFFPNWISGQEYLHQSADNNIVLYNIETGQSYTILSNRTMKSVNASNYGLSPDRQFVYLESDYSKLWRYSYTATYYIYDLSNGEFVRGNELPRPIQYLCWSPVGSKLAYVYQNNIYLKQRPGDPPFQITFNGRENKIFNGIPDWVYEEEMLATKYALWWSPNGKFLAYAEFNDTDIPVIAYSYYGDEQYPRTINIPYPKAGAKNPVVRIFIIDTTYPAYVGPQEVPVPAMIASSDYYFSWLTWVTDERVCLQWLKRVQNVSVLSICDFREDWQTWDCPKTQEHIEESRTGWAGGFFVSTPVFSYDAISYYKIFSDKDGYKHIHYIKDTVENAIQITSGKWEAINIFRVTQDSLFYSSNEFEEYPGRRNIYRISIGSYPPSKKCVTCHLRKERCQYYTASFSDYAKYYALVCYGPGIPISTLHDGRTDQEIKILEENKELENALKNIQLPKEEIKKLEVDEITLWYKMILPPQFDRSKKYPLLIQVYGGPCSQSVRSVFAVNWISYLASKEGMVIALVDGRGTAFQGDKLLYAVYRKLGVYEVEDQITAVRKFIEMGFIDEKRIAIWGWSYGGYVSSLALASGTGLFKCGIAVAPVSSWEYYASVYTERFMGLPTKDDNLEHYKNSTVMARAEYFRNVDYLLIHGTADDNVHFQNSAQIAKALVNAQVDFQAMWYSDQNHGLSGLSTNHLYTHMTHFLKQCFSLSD
Procedure: In order to determine binding of compounds according to the present invention to FAP-expressing cells, a competitive FACS binding assay was established. […] Cells were diluted in FACS buffer to a final concentration of 100.000 cells per ml and 200 μl of the cell suspension are transferred to a u-shaped non-binding 96-well plate (Greiner). […] Cell were washed twice with FACS buffer (see above) and resuspended in 200 μl FACS buffer. Cells were analyzed in an Attune NxT flow cytometer (Thermo Fisher Scientific). Median fluorescence intensities (Cy5 channel) were calculated by Attune NxT software and plotted against test compound concentrations. Four parameter logistic (4PL) curve fitting and pIC50 calculations were performed using ActivityBase software.

Human recombinant FAP [3] = biological target: T1, Human recombinant FAP; test: Surface plasmon resonance assay (Biacore T200, SCK); type: binding; details: for HL [min] (Biacore): SPR dissociation half-life; for Kd / pKD (Biacore): SPR; for Kd: read-out: pKD (Biacore) (converted)
Procedure: Surface plasmon resonance studies were performed using a Biacore™ T200 SPR system (Cytiva, formerly GE Healthcare). Briefly, polarized light is directed towards a gold-labeled sensor surface, and minimum intensity reflected light is detected. The angle of reflected light changes as molecules bind and dissociate. […] Test compounds are contacted with the loaded surface, and a real-time interaction profile with the FAP ligand is recorded in a sensorgram. In real-time, the association and dissociation of a binding interaction is measured, enabling calculation of association and dissociation rate constants and the corresponding affinity constants. Importantly, a background response is generated due to the difference in the refractive indices of the running and sample buffers, as well as unspecific binding of the test compounds to the flow cell surface. This background is measured and subtracted by running the sample on a control flow cell coated with the same density of capture antibody in the absence of immobilized FAP. Furthermore, baseline drift correction of the binding data is performed, which is caused by slow dissociation of the captured FAP from the immobilized antibody. This drift is measured by injecting running buffer through a flow cell with the antibody and FAP immobilized to the sensor surface.
Biacore™ CM5 sensor chips were used. […] A 150 μL aliquot was transferred into plastic vials and placed into the sample rack of the Biacore™ T200 instrument. Amine Coupling Kit Reagent solutions were transferred into plastic vials and placed into the sample rack: 90 μL of 0.4 M 1-ethyl-3-(3-dimethylaminopropyl) carbodiimide (EDC), and 90 μL of 0.1 M N-hydroxysuccinimide (NHS). A 130 μL aliquot of 1 M ethanolamine-HCl, pH 8.5, was transferred into plastic vials and placed into the sample rack. The Biacore™ liquid system was set-up as follows: Separate bottles containing distilled water (1 L), Running Buffer (500 mL), as well as an empty bottle for waste were placed onto the buffer tray. A preinstalled program for immobilization was used, with an immobilization level of 7000 RU. Immobilization was performed at 25° C. The immobilization procedure of anti-FAP antibodies was performed, as described in the Table 4.
Human recombinant FAP was diluted in Running Buffer to a final concentration of 20 μg/mL. A 100 μL aliquot of human FAP-Working-Solution was transferred into plastic vials and placed into a sample rack. A 0.5 mM Compound-Stock-Solution was prepared by dissolving each compound in DMSO. For each test compound, Compound-Stock-Solutions were diluted in Running Buffer (HBST) at 500 nM and further diluted with HBST-DMSO Buffer (0.1% DMSO). SPR binding analyses for binary complexes were performed in SCK mode at 25° C. Following three SCK measurements, a baseline drift was assessed by injecting running buffer through a flow cell, with the antibody and FAP immobilized to the sensor surface.
For each test compound, SPR raw data in the form of resonance units (RU) were plotted as sensorgrams using the Biacore™ T200 control software. The signal from the blank sensorgram was subtracted from that of the test compound sensorgram (blank corrected). The blank corrected sensorgram was corrected for baseline drift by subtracting the sensorgram of a SCK run without the test compound (running buffer only). The association rate (kon), dissociation rate (koff), dissociation constant (KD), and t1/2 were calculated from Blank-normalized SPR data using the 1:1 Langmuir binding model from the Biacore™ T200 evaluation software. Raw data and fit results were imported as text files in IDBS. The pKD value (negative decadic logarithm of dissociation constant) was calculated in the IDBS excel template.
Target sequence in this assay (Q12884 whole entry): as above

HT-29 cells = test: Stability in the presence of tumor cells (HT-29), FAP IC50 of supernatants; type: in vitro ADME, human; details: for pIC50 (incubation in cell medium w/o HT-29) / pIC50 (incubation in the presence of HT-29 cells): 10 μM compound, supernatant tested on recombinant human FAP; for pIC50 (incubation in cell medium w/o HT-29): 24 hours at 37° C. in control wells without cells; for pIC50 (incubation in the presence of HT-29 cells): 24 hours at 37° C. with HT-29 cells
Procedure: Cells were cultured in McCoys's 5A modified medium (Biochrom, #F1015) including 10% fetal bovine serum (FBS), 2 mM L-glutamine, 100 U/ml penicillin and 100 μg/mL streptomycin (growth medium). […] 1 mL of the cell suspension were seeded in 24-well plates and incubated overnight at 37° C. and 5% CO2. The next day, cells were washed twice and growth medium was exchanged against DMEM without phenol red (Biochrom, #F0475) including 2 mM L-glutamine. Test compound was diluted in DMEM without phenol red (Biochrom, #F0475) including 2 mM L-glutamine. 400 μL of a 10 μM solution of the test compound was incubated for 24 hours at 37° C. and 5% CO2 in the presence of cells as well as in control wells (without cells) of the same 24-well plate.
25 μL of a 30 μM substrate solution, diluted in assay buffer, was added. All solutions were equilibrated at 37° C. prior to use. […] RFU/sec was calculated by SoftMax Pro software and plotted against test compound concentration. Four parameter logistic (4PL) curve fitting and IC50/pIC50 calculations were performed using GraphPad Prism 9.1 software.
The stability of exemplary compounds was further assessed in the presence of a variety of human cell lines from different tissue origins. […] Compounds were diluted in DMEM without phenol red (Biochrom, #F0475) including 2 mM L-glutamine. 400 μL of a 10 μM solution of the test compound was incubated for 24 hours at 37° C. and 5% CO2 in the presence of cells as well as in control wells (without cells) of the same 24-well plate. IC50/pIC50 determination of the supernatants was performed as described above.

Recombinant human DPP4 = Recombinant human DPP4 (Homo sapiens (Human), UniProt P27487); test: DPP4 protease activity assay; type: biochemical
Recombinant human DPP4, sequence (P27487 whole entry): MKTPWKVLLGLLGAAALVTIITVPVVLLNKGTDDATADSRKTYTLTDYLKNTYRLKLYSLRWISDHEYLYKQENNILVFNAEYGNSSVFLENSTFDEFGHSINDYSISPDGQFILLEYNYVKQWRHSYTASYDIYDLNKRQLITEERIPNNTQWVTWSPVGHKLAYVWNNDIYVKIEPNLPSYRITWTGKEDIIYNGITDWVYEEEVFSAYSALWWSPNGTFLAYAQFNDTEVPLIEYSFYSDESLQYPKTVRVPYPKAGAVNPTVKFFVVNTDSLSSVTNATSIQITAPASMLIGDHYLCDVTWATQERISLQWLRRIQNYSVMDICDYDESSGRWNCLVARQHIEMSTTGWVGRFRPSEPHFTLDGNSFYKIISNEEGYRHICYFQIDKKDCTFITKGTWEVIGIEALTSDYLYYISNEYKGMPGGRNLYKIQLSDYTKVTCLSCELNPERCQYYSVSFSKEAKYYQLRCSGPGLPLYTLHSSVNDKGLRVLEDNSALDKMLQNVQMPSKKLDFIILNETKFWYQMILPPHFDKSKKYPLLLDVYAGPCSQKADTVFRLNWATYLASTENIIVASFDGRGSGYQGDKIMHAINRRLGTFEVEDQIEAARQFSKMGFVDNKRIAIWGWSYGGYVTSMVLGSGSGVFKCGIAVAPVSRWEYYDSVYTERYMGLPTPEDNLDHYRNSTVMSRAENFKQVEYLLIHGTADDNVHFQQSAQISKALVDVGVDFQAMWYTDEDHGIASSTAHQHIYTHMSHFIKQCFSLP
Procedure: The PREP activity assay was performed using the FACS buffer (PBS including 1% FBS, Sigma-Aldrich, Cat #D8537). […] The DPP4 activity assay was performed in DPP assay buffer (25 mM Tris, pH 8.0). […] Four parameter logistic (4PL) curve fitting and pIC50 calculations were performed using ActivityBase software.

[4] = human FAP protease activity, FRET
[5] = recombinant human FAP, FRET protease activity
[6] = FAP-expressing WI-38 fibroblasts

With O=C(NCC(=O)N1CCC[C@H]1B(O)O)c1ccnc2ccccc12 [Compound 3BP-4081] the “pIC50 (Activity)” value (Human recombinant FAP [1]; [4]) was 8.9 and the “pIC50 (FACS)” value ([2]; WI-38 fibroblasts) was 8.5.
In the case of N#C[C@@H]1CC(F)(F)CN1C(=O)CNC(=O)c1ccnc2ccc(-c3ccc(C(=O)NCCN4CCN(C(=O)CN5CCN(CC(=O)O)CCN(CC(=O)O)CCN(CC(=O)O)CC5)CC4)nc3)cc12 [Compound 3BP-4076, (S)-2,2′,2″-(10-(2-(4-(2-(5-(4-(2-(2-cyano-4,4-difluoropyrrolidin-1-yl)-2-oxoethylcarbamoyl)quinolin-6-yl)picolinamido)ethyl)piperazin-1-yl)-2-oxoethyl)-1,4,7,10-tetraazacyclododecane-1,4,7-triyl)triacetic Acid], the IC50 (Human recombinant FAP [1]; [4]) is reported as 0.631 nM, the IC50 ([2]; WI-38 fibroblasts) is reported as 1.26 nM and the “HL [min] (Biacore)” value (Human recombinant FAP [3]) is reported as greater than 150 min. The Kd (Human recombinant FAP [3]) was less than 0.0316 nM.
For CC(C)(C)OC(=O)N1CCN(CCCOc2ccc3nccc(C(=O)NCC(=O)N4CC(F)(F)C[C@H]4C#N)c3c2)CC1 [Compound 3BP-3580], the “pIC50 (Activity)” value (Human recombinant FAP [1]; [5]) was 8.8 and the “pIC50 (FACS)” value [2, 6] was 8.4.
In the case of CCOc1cccc2c(C(=O)NCC(=O)N3CC(F)(F)C[C@H]3C#N)ccnc12 [Compound 3BP-4151], the “pIC50 (Activity)” value (Human recombinant FAP [1]; [4]) is reported as 8.5 and the “pIC50 (FACS)” value ([2]; WI-38 fibroblasts) is reported as 7.7.
O=C(O)CN1CCN(CC(=O)O)CCN(CC(=O)NCCCNC(=O)c2ccc(-c3ccc4nccc(C(=O)NCC(=O)N5CCC[C@H]5B(O)O)c4c3)cc2)CCN(CC(=O)O)CC1 [Compound 3BP-4201] was tested, and the “pKD (Biacore)” value (Human recombinant FAP [3]) was greater than 10.5 and the “HL [min] (Biacore)” value (Human recombinant FAP [3]) was greater than 150 min.
For N#C[C@@H]1CCCN1C(=O)CNC(=O)c1ccnc2ccccc12 [Compound 3BP-2762], the “pIC50 (incubation in cell medium w/o HT-29)” value (HT-29 cells) was 8.4, the “Residual activity after incubation with HT-29 cells for 24 hours (%)” value (“Residual activity after incubation … (%)” below) (HT-29 cells) was 63% and the “pIC50 (DPP4)” value (Recombinant human DPP4) was less than 6.
In the case of CC(C)(C)OC(=O)N1CCN(CCCOc2ccc3c(c2)c(C(=O)NCC(=O)N2CC(F)(F)C[C@H]2C#N)cc[n+]3[O-])CC1 [Compound 3BP-3579], the “pIC50 (Activity)” value (Human recombinant FAP [1]; [5]) is reported as 8.6 and the “pIC50 (FACS)” value [2, 6] is reported as 8.
N#C[C@@H]1CC(F)(F)CN1C(=O)CNC(=O)c1ccnc2ccccc12 [Compound 3BP-3232] was tested, and the “pIC50 (incubation in the presence of HT-29 cells)” value (HT-29 cells) was 8.0 and the “Residual activity after incubation … (%)” value (HT-29 cells) was 13%.
In the case of Cn1ncnc1C(=O)[C@@H]1CCCN1C(=O)CNC(=O)c1ccnc2ccccc12 [Compound 3BP-3207], the “pIC50 (Activity)” value (Human recombinant FAP [1]; [5]) is reported as 6.5 and the “pIC50 (FACS)” value [2, 6] is reported as less than 6.
With CS(=O)(=O)c1ccc(-c2ccc3nccc(C(=O)NCC(=O)N4CC(F)(F)C[C@H]4C#N)c3c2)c(CO)c1 [Compound 3BP-4084, (S)—N-(2-(2-cyano-4,4-difluoropyrrolidin-1-yl)-2-oxoethyl)-6-(2-(hydroxymethyl)-4-(methylsulfonyl)phenyl)quinoline-4-carboxamide] the “HL [min] (Biacore)” value (Human recombinant FAP [3]) was greater than 150 min.
O=C(O)CN1CCN(CC(=O)O)CCN(CC(=O)N2CCN(CCCOc3ccc4nccc(C(=O)NCC(=O)N5CC(F)(F)C[C@H]5C(=O)c5nc6ccccc6o5)c4c3)CC2)CCN(CC(=O)O)CC1 [Compound 3BP-3412] was tested, and the “HL [min] (Biacore)” value (Human recombinant FAP [3]) was 57 min, the “pIC50 (incubation in the presence of HT-29 cells)” value (HT-29 cells) was 8.6 and the “Residual activity after incubation … (%)” value (HT-29 cells) was greater than 95%.
COc1cccc2c(C(=O)NCC(=O)N3CC(F)(F)C[C@H]3C#N)ccnc12 [Compound 3BP-4085] was tested, and the “pIC50 (Activity)” value (Human recombinant FAP [1]; [4]) was 8.2 and the “pIC50 (FACS)” value ([2]; WI-38 fibroblasts) was 7.7.
O=C(NCC(=O)N1CCC[C@H]1C(=O)CO)c1ccnc2ccccc12 [Compound 3BP-4197, (S)—N-(2-(2-(2-hydroxyacetyl)pyrrolidin-1-yl)-2-oxoethyl)quinoline-4-carboxamide] was tested, and the IC50 (Human recombinant FAP [1]; [4]) was 3.16 nM, the IC50 ([2]; WI-38 fibroblasts) was 10 nM and the “HL [min] (Biacore)” value (Human recombinant FAP [3]) was 3.1 min. For the same compound, the Kd (Human recombinant FAP [3]) was 1 nM.
CC(C)(C)OC(=O)N1CC[N+]([O-])(CCCOc2ccc3nccc(C(=O)NCC(=O)N4CC(F)(F)C[C@H]4C#N)c3c2)CC1 [Compound 3BP-3577] was tested, and the “pIC50 (Activity)” value (Human recombinant FAP [1]; [5]) was 9 and the “pIC50 (FACS)” value [2, 6] was 8.6.
N#C[C@@H]1CC(F)(F)CN1C(=O)CNC(=O)c1ccnc2ccc(-c3ccc(C(=O)NCCCNC(=O)CN4CCN(CC(=O)O)CCN(CC(=O)O)CCN(CC(=O)O)CC4)cc3)cc12 [Compound 3BP-3621] was tested, and the “pKD (Biacore)” value (Human recombinant FAP [3]) was greater than 10.5 and the “HL [min] (Biacore)” value (Human recombinant FAP [3]) was greater than 150 min.
CS(=O)(=O)c1ccc(-c2ccc3c(C(=O)NCC(=O)N4CC(F)(F)C[C@H]4C#N)ccnc3c2)cc1 [Compound 3BP-3236] was tested, and the “HL [min] (Biacore)” value (Human recombinant FAP [3]) was 37 min.
In the case of N#C[C@@H]1CC(F)(F)CN1C(=O)CNC(=O)c1ccnc2ccc(-c3ccc(C(=O)NCCN4CCN(C(=O)CN5CCN(CC(=O)O)CCN(CC(=O)O)CCN(CC(=O)O)CC5)CC4)cc3)cc12 [Compound 3BP-3631], the “pKD (Biacore)” value (Human recombinant FAP [3]) is reported as greater than 10.5 and the “HL [min] (Biacore)” value (Human recombinant FAP [3]) is reported as greater than 150 min.
In the case of N#C[C@@H]1CCCN1C(=O)CNC(=O)c1ccnc2ccc(-c3ccc(C(=O)NCCCNC(=O)CN4CCN(CC(=O)O)CCN(CC(=O)O)CCN(CC(=O)O)CC4)cc3)cc12 [Compound 3BP-3785], the “HL [min] (Biacore)” value (Human recombinant FAP [3]) is reported as greater than 150 min.
With CC(C)(C)OC(=O)N1CC[N+]([O-])(CCCOc2ccc3c(c2)c(C(=O)NCC(=O)N2CC(F)(F)C[C@H]2C#N)cc[n+]3[O-])CC1 [Compound 3BP-3578] the “pIC50 (Activity)” value (Human recombinant FAP [1]; [5]) was 8.6 and the “pIC50 (FACS)” value [2, 6] was 8.
In the case of N#C[C@@H]1CC(F)(F)CN1C(=O)CNC(=O)c1ccnc2ccc(-c3ccc(S(=O)(=O)CCCNC(=O)CN4CCN(CC(=O)O)CCN(CC(=O)O)CCN(CC(=O)O)CC4)cc3)cc12 [Compound 3BP-3467], the “pKD (Biacore)” value (Human recombinant FAP [3]) is reported as greater than 10.5, the “HL [min] (Biacore)” value (Human recombinant FAP [3]) is reported as greater than 150 min and the “pIC50 (incubation in cell medium w/o HT-29)” value (HT-29 cells) is reported as 9.3. The “pIC50 (incubation in the presence of HT-29 cells)” value (HT-29 cells) was 8.4 and the “Residual activity after incubation … (%)” value (HT-29 cells) was 13%.
For Cc1cccc2c(C(=O)NCC(=O)N3CC(F)(F)C[C@H]3C#N)ccnc12 [Compound 3BP-4150], the “pIC50 (Activity)” value (Human recombinant FAP [1]; [4]) was 7.9 and the “pIC50 (FACS)” value ([2]; WI-38 fibroblasts) was 7.6.
